From US9901611B2 (Molecular Defenses Corporation, priority 2015, dated 2018)
Where two headings read alike, the source gives them in different places.

Tests used:
HIV = conditions: U1 cells, in the absence of cytotoxic or cytostatic effects; cited from earlier work
[1] = rats, LPS; cited from earlier work
HIV-1 LTR = conditions: Jurkat cells, synergistic induction by TNFα and Tat; cited from earlier work
[2] = far advanced AIDS
From the text: A clinical study on far advanced AIDS patients who had exhausted the HAART combinations and averaged 300,000 copies (HIV RNA PCR) and 50 CD4+ cells/per cubic mm.

[3] = tested on: high-affinity component of mitochondrial GSH transport; conditions: stimulated by ATP; cited from earlier work
[4] = in vivo, po; for share absorbed and intracellular: 1.5 hours
From the text: It would be possible to follow the two groups and to compare the rates of progression to determine statistically significant differences.

HIV-1 = conditions: in vitro, cited from earlier work
[5] = human, in vivo, iv; cited from earlier work
microglial cells = conditions: microglia, NO and superoxide generated simultaneously; cited from earlier work
[6] = rat, i.v. bolus, cited from earlier work
[7] = infusion 10 mg/min for 120 min, cited from earlier work
[8] = tested on: mouse cytotoxic T-lymphocytes; conditions: i.p. injection on the third day post immunization; cited from earlier work
[9] = cited from earlier work
[10] = mouse, GSH pretreatment; cited from earlier work
[11] = 1,200 mg/day i.v., compared to baseline; cited from earlier work
[12] = 5 g oral per day, two female patients who survived 1 year; cited from earlier work
[13] = Phase I/II clinical trial of oral GSH in HIV positive patients, PBMC intracellular GSH; format: in vivo, human
From the text: Early clinical trials determined the pharmacokinetics of absorption and intracellular distribution in Peripheral Blood Mononuclear Cells in asymptomatic HIV (+) patients, using three doses of 1 gm, 2 gms and 3 gms/day over a 4 week period, with two weeks of baselines, plus two weeks of post drug exposure.

[14] = high end of dose range 50-300 mmol/kg
[15] = low end of dose range 50-300 mmol/kg
[16] = asymptomatic HIV (+) patients, 1, 2 and 3 gms/day

CC(=O)N[C@@H](CS)C(=O)O [NAC, N-acetyl-L-cysteine]
induction of HIV expression mediated by PMA, TNF-α or IL-6 (HIV): suppressed in a dose-dependent fashion | decrease of lung lavage neutrophil count [1]: six fold | HIV-1 LTR-mediated gene expression (HIV-1 LTR): significantly suppressed

GSH ester [GSE]
induction of HIV expression mediated by PMA, TNF-α or IL-6 (HIV): suppressed in a dose-dependent fashion

N/C(=N\O)c1cc(O)c(O)c(O)c1 [TD, Trimidox]
HIV-1 LTR-mediated gene expression (HIV-1 LTR): significantly suppressed

N[C@@H](CCC(=O)N[C@@H](CS)C(=O)NCC(=O)O)C(=O)O [GSH, gamma-glutamyl-cysteinyl-glycine]
induction of HIV expression mediated by PMA, TNF-α or IL-6 (HIV): suppressed in a dose-dependent fashion | survival after starting on GSH ([2]; 75 mg/kg in two divided doses, four patients who followed the regimen): 3 years | CD4+ cell counts ([2]; four patients): did not restore their CD4+ cell counts to any extent | Km [3]: ~60 µM | V max [3]: approximately 0.5 nM/min per mg of protein | share absorbed and intracellular ([4]; human): 70-80% | toxicities [4]: no significant toxicities | share absorbed and intracellular [4]: 80% | duration of suppression of HIV production (HIV-1; intracellular GSH in infected monocytes raised to the high end of the normal range): about 35 days | HIV-1 p24 antigen levels and reverse transcriptase activity (HIV-1; single pulse exposure): sustained, concentration-dependent decrease | half-life [5]: 14.1 ± 9.2 min | peroxynitrite formation (microglial cells): significantly decreased | apparent volume of distribution [6, 14]: 1.33 L/kg | half-life of the elimination phase [6, 14]: 11.4 min | rate constant for drug elimination and plasma clearance [6, 14]: 2.44 mL/min | apparent volume of distribution [6, 15]: 3.78 L/kg | half-life of the elimination phase [6, 15]: 52.4 min | rate constant for drug elimination and plasma clearance [6, 15]: 0.84 mL/min | insulin clearance and action [7]: No effect was seen | glucose-induced insulin secretion ([7]; patients with IGT): significantly potentiated | augmentation of cytotoxic activity [8]: 5 fold | systolic and diastolic blood pressure ([9]; 1,844 mg i.v. bolus, hypertensive patients and non-hypertensive diabetics, within ten minutes): rapid and significant decrease | blood pressure values ([9]; 3,699 mg dose, normal subjects): significant decrease | morphine-induced lethality [10]: protects against morphine-induced lethality | hematologic parameters (hematocrit, hemoglobin, blood count) [11]: significantly increase | tumor growth [12]: regression or stagnation of their tumor growth | relation of dose to PBMC GSH ([13]; 1 gm, 2 gms and 3 gms/day): dose response relationship | completion of absorption and distribution within the PBMC [13, 16]: 60 min | start of absorption and distribution within the PBMC after ingestion [13, 16]: 30 min | toxicities ([13]; asymptomatic HIV (+) patients, 4 week period): no evidence of toxicities
